# Activity calls are given as the source filed them. No cut-off for these calls is given here.
# System: MCF7
# Test: Increase of CD44 mRNA expression in human ER positive MCF7 cells by RT-PCR analysis relative to control
# Type: functional
# Settings: not given
Compound,fold change (FC),Activity
O=C(Cn1nnnc1-c1ccc2c(c1)OCO2)N/N=C/c1ccccc1[N+](=O)[O-],2,
O=C(Cn1nnnc1-c1ccc2c(c1)OCO2)N/N=C/c1ccccc1Cl,,Active
COc1ccc(/C=N/NC(=O)Cn2nnnc2-c2ccc3c(c2)OCO3)c(OC)c1,2,
O=C(Cn1nnnc1-c1ccc2c(c1)OCO2)N/N=C/c1cccc([N+](=O)[O-])c1,,Active
O=C(Cn1nnnc1-c1ccc2c(c1)OCO2)N/N=C/c1ccc([N+](=O)[O-])cc1,,Active

# System: MDA-MB-231
# Test: Reduction of BAX mRNA expression in human ER negative MDA-MB-231 cells by RT-PCR analysis relative to control
# Type: functional, cell-based
# Settings: not given
row,Compound,Activity
1,O=C(Cn1nnnc1-c1ccc2c(c1)OCO2)N/N=C/c1ccccc1[N+](=O)[O-],Active
2,O=C(Cn1nnnc1-c1ccc2c(c1)OCO2)N/N=C/c1ccccc1Cl,Active
3,COc1ccc(/C=N/NC(=O)Cn2nnnc2-c2ccc3c(c2)OCO3)c(OC)c1,Active
4,O=C(Cn1nnnc1-c1ccc2c(c1)OCO2)N/N=C/c1cccc([N+](=O)[O-])c1,Active
5,O=C(Cn1nnnc1-c1ccc2c(c1)OCO2)N/N=C/c1ccc([N+](=O)[O-])cc1,Active

# System: MCF7
# Test: Decrease of BRAC1 mRNA expression in human ER positive MCF7 cells by RT-PCR analysis relative to control
# Type: functional, cell-based
# Settings: not given
row,Compound,Activity
1,O=C(Cn1nnnc1-c1ccc2c(c1)OCO2)N/N=C/c1ccccc1[N+](=O)[O-],Active
2,O=C(Cn1nnnc1-c1ccc2c(c1)OCO2)N/N=C/c1ccccc1Cl,Active
3,COc1ccc(/C=N/NC(=O)Cn2nnnc2-c2ccc3c(c2)OCO3)c(OC)c1,Active
4,O=C(Cn1nnnc1-c1ccc2c(c1)OCO2)N/N=C/c1cccc([N+](=O)[O-])c1,Active
5,O=C(Cn1nnnc1-c1ccc2c(c1)OCO2)N/N=C/c1ccc([N+](=O)[O-])cc1,Active

# System: MDA-MB-231
# Test: Decrease of BRAC1 mRNA expression in human ER negative MDA-MB-231 cells by RT-PCR analysis relative to control
# Type: functional
# Settings: not given
row,Compound,fold change (FC)
1,O=C(Cn1nnnc1-c1ccc2c(c1)OCO2)N/N=C/c1ccccc1[N+](=O)[O-],2
2,O=C(Cn1nnnc1-c1ccc2c(c1)OCO2)N/N=C/c1ccccc1Cl,2
3,COc1ccc(/C=N/NC(=O)Cn2nnnc2-c2ccc3c(c2)OCO3)c(OC)c1,2
4,O=C(Cn1nnnc1-c1ccc2c(c1)OCO2)N/N=C/c1cccc([N+](=O)[O-])c1,2
5,O=C(Cn1nnnc1-c1ccc2c(c1)OCO2)N/N=C/c1ccc([N+](=O)[O-])cc1,2

# System: MCF7
# Test: Reduction of BAX mRNA expression in human ER positive MCF7 cells by RT-PCR analysis relative to control
# Type: functional
# Settings: not given
row,Compound,fold change (FC)
1,O=C(Cn1nnnc1-c1ccc2c(c1)OCO2)N/N=C/c1ccccc1[N+](=O)[O-],>2
2,O=C(Cn1nnnc1-c1ccc2c(c1)OCO2)N/N=C/c1ccccc1Cl,>2
3,COc1ccc(/C=N/NC(=O)Cn2nnnc2-c2ccc3c(c2)OCO3)c(OC)c1,>2
4,O=C(Cn1nnnc1-c1ccc2c(c1)OCO2)N/N=C/c1cccc([N+](=O)[O-])c1,>2
5,O=C(Cn1nnnc1-c1ccc2c(c1)OCO2)N/N=C/c1ccc([N+](=O)[O-])cc1,>2

# System: MCF7
# Test: Decrease of p53 and KRT19 mRNA expression in human ER positive MCF7 cells by RT-PCR analysis relative to control
# Type: functional, cell-based
# Settings: not given
row,Compound,Activity
1,O=C(Cn1nnnc1-c1ccc2c(c1)OCO2)N/N=C/c1ccccc1[N+](=O)[O-],Active
2,O=C(Cn1nnnc1-c1ccc2c(c1)OCO2)N/N=C/c1ccccc1Cl,Active
3,COc1ccc(/C=N/NC(=O)Cn2nnnc2-c2ccc3c(c2)OCO3)c(OC)c1,Active
4,O=C(Cn1nnnc1-c1ccc2c(c1)OCO2)N/N=C/c1cccc([N+](=O)[O-])c1,Active
5,O=C(Cn1nnnc1-c1ccc2c(c1)OCO2)N/N=C/c1ccc([N+](=O)[O-])cc1,Active

# System: MDA-MB-231
# Test: Decrease of CD44 mRNA expression in human ER negative MDA-MB-231 cells by RT-PCR analysis relative to control
# Type: functional, cell-based
# Settings: not given
row,Compound,Activity
1,O=C(Cn1nnnc1-c1ccc2c(c1)OCO2)N/N=C/c1ccccc1[N+](=O)[O-],Active
2,O=C(Cn1nnnc1-c1ccc2c(c1)OCO2)N/N=C/c1ccccc1Cl,Active
3,COc1ccc(/C=N/NC(=O)Cn2nnnc2-c2ccc3c(c2)OCO3)c(OC)c1,Active
4,O=C(Cn1nnnc1-c1ccc2c(c1)OCO2)N/N=C/c1cccc([N+](=O)[O-])c1,Active
5,O=C(Cn1nnnc1-c1ccc2c(c1)OCO2)N/N=C/c1ccc([N+](=O)[O-])cc1,Active

# System: HepG2
# Test: Cytotoxicity against human HepG2 cells assessed as growth inhibition at 10^-5 M after 48 hrs by MTT assay
# Type: functional
# Settings: HepG2, 48 h, read-out: GI
row,Compound,inhibition of growth at 10 µM [%]
1,O=C(Cn1nnnc1-c1ccc2c(c1)OCO2)N/N=C/c1ccccc1[N+](=O)[O-],0
2,O=C(Cn1nnnc1-c1ccc2c(c1)OCO2)N/N=C/c1ccccc1Cl,0
3,O=C(Cn1nnnc1-c1ccc2c(c1)OCO2)N/N=C/c1ccco1,0
4,CCc1ccc(/C=N/NC(=O)Cn2nnnc2-c2ccc3c(c2)OCO3)cc1,0
5,CCOc1ccc(/C=N/NC(=O)Cn2nnnc2-c2ccc3c(c2)OCO3)cc1,0
6,COc1ccc(/C=N/NC(=O)Cn2nnnc2-c2ccc3c(c2)OCO3)c(OC)c1,0
7,O=C(Cn1nnnc1-c1ccc2c(c1)OCO2)N/N=C/c1cccc([N+](=O)[O-])c1,0
8,CCOc1ccccc1/C=N/NC(=O)Cn1nnnc1-c1ccc2c(c1)OCO2,0
9,O=C(Cn1nnnc1-c1ccc2c(c1)OCO2)N/N=C/c1ccccc1,0
10,COc1ccc(/C=N/NC(=O)Cn2nnnc2-c2ccc3c(c2)OCO3)cc1,0
11,O=C(Cn1nnnc1-c1ccc2c(c1)OCO2)N/N=C/c1ccc([N+](=O)[O-])cc1,0
12,O=C(Cn1nnnc1-c1ccc2c(c1)OCO2)N/N=C/c1ccc(Cl)cc1,0
13,O=C(Cn1nnnc1-c1ccc2c(c1)OCO2)N/N=C/c1cccs1,0
14,Cc1ccc(/C=N/NC(=O)Cn2nnnc2-c2ccc3c(c2)OCO3)cc1,0

# Source: ChEMBL document CHEMBL3098100, “Synthesis, characterization and anticancer screening of some novel piperonyl-tetrazole derivatives” (2014)
